Earlier results as cited in patent US20260345593A1, “ORAL FORMULATION OF N-PYRIDINYL ACETAMIDE DERIVATIVE FOR TREATING INTERSTITIAL LUNG DISEASE” (AstraZeneca AB, priority 2022, published 2026).

Legend:
patients with IPF = details: cited from earlier work; for rate of decline in lung function: patients with IPF (King 2014 and Richeldi 2014); for GI side effects / tolerability in IPF patients: patients with IPF
[1] = system: patients with ILD-PF other than IPF; details: ILD-PF other than IPF (Wells 2020); cited from earlier work
[2] = 20 mg BID, preclinical and clinical studies; cited from earlier work
pH elevation = details: 20 mg BID oral pre-treatment; cited from earlier work
[3] = system: Axin2 expression levels in skin samples from subjects with advanced cancers; details: 10 mg once daily, cited from earlier work
[4] = system: ILD patients with SSc-ILD; details: SSc-ILD (Khanna 2020); cited from earlier work

| Compound | rate of decline in lung function (patients with IPF) | GI side effects (patients with IPF) | tolerability in IPF patients (patients with IPF) | further results |
| --- | --- | --- | --- | --- |
| COC(=O)c1ccc2c(c1)NC(=O)/C2=C(\Nc1ccc(N(C)C(=O)CN2CCN(C)CC2)cc1)c1ccccc1 [nintedanib, methyl (3Z)-3-{[(4-{methyl[(4-methylpiperazin-1-yl)acetyl]amino}phenyl)amino](phenyl)methylidene}-2-oxo-2,3-dihydro-1H-indole-6-carboxylate] | slow the rate of decline in lung function | troublesome GI side effects | many patients with IPF are not able to tolerate these medications | rate of decline in lung function [1]: slow the rate of decline in lung function in these patients |
| Cc1ccc(=O)n(-c2ccccc2)c1 [pirfenidone] | slow the rate of decline in lung function | troublesome GI side effects | many patients with IPF are not able to tolerate these medications |  |
| COCCCOc1ccnc(C[S+]([O-])c2nc3ccccc3[nH]2)c1C (racemic) [rabeprazole, (RS)-2-([4-(3-methoxypropoxy)-3-methylpyridin-2-yl]methylsulfinyl)-1H-benzo[d]imidazole] |  |  |  | safety concerns [2]: not raised any notable safety concerns; time to PD steady state of pH elevation (pH elevation): 3 days |
| Cc1cc(-c2ncc(CC(=O)Nc3ccc(-c4cnccn4)cn3)cc2C)ccn1 [Wnt974] |  |  |  | reduction in Axin2 expression levels in skin samples ([3]; subjects with advanced cancers (Rodon 2021)): approximately 90%; average Ctrough at steady state ([3]; subjects with advanced cancers): 3.7 ×IC50 |
| Tocilizumab: a monoclonal antibody directed against the IL-6 receptor |  |  |  | progression of lung disease [4]: slow progression of lung disease |
